Where “and” joins values, the source holds several entries; their conditions need not be identical. Identical values can stand only once.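 Dose response: 5 concentrations. Exposure: 48 h. Format: 96-well plates. Endpoint: linear interpolation; highest concentration if not reached. Here, GI50 denotes the concentration required for 50% inhibition of growth. The concentration for full growth arrest is given as TGI.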
Legend:
Experiment in all cases: NCI-60 cell line screen, 48 h
SF-295 CNS = tested on: SF-295 CNS
SNB-19 CNS = tested on: SNB-19 CNS
MOLT-4 leukemia = tested on: MOLT-4 leukemia
SK-MEL-28 melanoma = tested on: SK-MEL-28 melanoma
NCI-H460 lung = tested on: NCI-H460 lung
COLO 205 colon = tested on: COLO 205 colon
IGROV1 ovarian = tested on: IGROV1 ovarian
SR leukemia = tested on: SR leukemia
OVCAR-4 ovarian = tested on: OVCAR-4 ovarian
NCI-H226 lung = tested on: NCI-H226 lung

| Compound | GI50 (SF-295 CNS) | TGI (SF-295 CNS) | GI50 (SNB-19 CNS) | TGI (SNB-19 CNS) | GI50 (MOLT-4 leukemia) | TGI (MOLT-4 leukemia) | GI50 (SK-MEL-28 melanoma) | TGI (SK-MEL-28 melanoma) | GI50 (NCI-H460 lung) | TGI (NCI-H460 lung) | GI50 (COLO 205 colon) | TGI (COLO 205 colon) | GI50 (IGROV1 ovarian) | TGI (IGROV1 ovarian) | GI50 (SR leukemia) | TGI (SR leukemia) | GI50 (OVCAR-4 ovarian) | TGI (OVCAR-4 ovarian) | GI50 (NCI-H226 lung) | TGI (NCI-H226 lung) |
| --- | --- | --- | --- | --- | --- | --- | --- | --- | --- | --- | --- | --- | --- | --- | --- | --- | --- | --- | --- | --- |
| COc1ccc(-c2nsc3c2NC(=O)CC3c2cccc(F)c2)cc1 (stereo unspecified) | 6.68 µM | > 100 µM | 5.91 µM | > 100 µM | 5 µM | > 100 µM | 7.37 µM | > 100 µM | 3.63 µM | > 100 µM | 2.95 µM | > 100 µM | 13.8 µM | > 100 µM | 2.44 µM | > 100 µM | 50.2 µM | > 100 µM | 6.74 µM | > 100 µM |
| CN(C)c1ccc(/C=N/n2c(CCCCc3n[nH]c(=S)n3/N=C/c3ccc(N(C)C)cc3)n[nH]c2=S)cc1 | > 100 µM | > 100 µM | > 100 µM | > 100 µM | > 100 µM | > 100 µM | > 100 µM | > 100 µM | > 100 µM | > 100 µM | > 100 µM | > 100 µM | > 100 µM | > 100 µM | > 100 µM | > 100 µM | > 100 µM | > 100 µM | > 100 µM | > 100 µM |
| CC[C@@]1(O)C(=O)OCc2c1cc1n(c2=O)Cc2cc3cccc(N)c3nc2-1 | 4.04 µM | 23.5 µM | 5.77 µM | 50.3 µM | 2.35 µM | > 100 µM | > 100 µM | > 100 µM | 1.38 µM | 11.2 µM | 13.9 µM | > 100 µM | 11.5 µM | 38.8 µM | 0.478 µM |  | 7.57 µM | > 100 µM | 2.57 µM | 27.9 µM |
| CN(CCCCCCCCNc1ccnc2ccccc12)Cc1ccc(-c2ccc(-c3ccc(C#N)cc3)s2)cc1 | 0.501 µM | 1.26 µM | 1.31 µM | 2.79 µM | 0.368 µM | 2.51 µM | 1.65 µM | 3.06 µM | 0.367 µM | 1.25 µM | 0.63 µM | 2.17 µM | 1.4 µM | 3.02 µM | 0.083 µM | 0.35 µM | 0.139 µM | 1.99 µM | 1.17 µM | 3.17 µM |
| COc1ccc(C2CC(c3ccc4ccccc4c3)=NN2c2nc(O)c(C3=c4cc(Cl)ccc4=NC3=O)s2)cc1 (stereo unspecified) | 0.0197 µM and < 0.005 µM | 0.0491 µM and < 0.005 µM | 0.034 µM and < 0.005 µM | 1.18 µM | 0.0329 µM and < 0.005 µM |  | 0.0258 µM and < 0.005 µM |  | 0.0216 µM | 0.0472 µM | 0.0221 µM | 0.0503 µM | 0.0254 µM | 0.0736 µM | 0.0338 µM and < 0.005 µM | < 0.005 µM | 0.0215 µM | 0.0487 µM | 0.0208 µM | 0.052 µM |
| COc1ccc2[nH]cc(Cc3c[nH]c4ccc(OC)cc34)c2c1 | 16.6 µM | 34.5 µM | 29.3 µM | 79.8 µM | 37.4 µM | > 100 µM | 21.8 µM | 53 µM | 22.7 µM | 63.8 µM | 18.6 µM | 35.3 µM | 15.4 µM | 33.1 µM | 77.8 µM | > 100 µM | 17.6 µM | 40.3 µM | 18.5 µM | 48.9 µM |
| CC[C@H](C)[C@H](NC(=O)[C@H]1CCCCN1C)C(=O)N(C)[C@H](C[C@@H](OC(C)=O)c1nc(C(=O)NC23C4C5C2C2C3C4C52C(=O)OC)cs1)C(C)C (stereo partly specified) | 0.00253 µM and 0.0025 µM | 0.0944 µM and 0.282 µM | 0.00396 µM and 0.0025 µM | > 25 µM | 0.00485 µM and 0.0025 µM | > 25 µM | 3.12 µM | > 25 µM | 0.003 µM and 0.0025 µM | > 25 µM | 0.00303 µM and 0.0025 µM | 0.0715 µM and 0.0111 µM | 0.00242 µM and 0.0025 µM | 20.1 µM |  | 5.98 µM | 0.0506 µM | > 25 µM | 0.0256 µM and 0.0222 µM | 1.15 µM |
| CCN(CC)CCOc1ccc(NC(=O)C(C(C)C)N2C(=O)/C(=C/c3ccc(Br)cc3)SC2=S)cc1 (stereo unspecified) | 3.41 µM | 11.7 µM | 2.3 µM | 6.09 µM | 2.68 µM | 9.38 µM | 2.07 µM | 4.35 µM | 1.85 µM | 3.51 µM | 2.64 µM | 6.88 µM | 2.61 µM | 8.03 µM | 2.16 µM | 6.43 µM | 2.25 µM | 5.67 µM | 16.2 µM | 37.3 µM |
| CCCCCCCCCCCCCP(=O)(OC)OC |  | 37.1 µM |  | 38.6 µM |  | 36.5 µM |  | 39.1 µM |  | 31.3 µM |  | 34.2 µM |  | 35.5 µM |  | 38.4 µM |  | 34.6 µM |  | 35.9 µM |
| O=C(CS(=O)c1nc2ccccc2nc1-c1ccccc1)Nc1ccc(Cl)cc1 (stereo unspecified) | 15.7 µM | 48.7 µM | 38.4 µM | > 100 µM | 24.4 µM | 69.3 µM | 58.9 µM | > 100 µM | 18.6 µM | 47.7 µM | 23.4 µM | 58.6 µM | 31.2 µM | 99.5 µM | 18.7 µM | 47.6 µM | 61.2 µM | > 100 µM | 23.1 µM | 47.8 µM |

— PubChem BioAssay (NCI)
